Measured values published in US20120225062A1 (priority 2011, published 2012).

Key:
Pim 3 = Pim 3 (Homo sapiens, UniProt Q86V86); test: Pim 3 AlphaScreen assay (high ATP)
Pim 2 = Pim 2 (Homo sapiens, UniProt Q9P1W9); test: Pim 2 AlphaScreen assay (high ATP)
Procedure: The activity of Pim 1, Pim 2, & Pim 3 is measured using a homogeneous bead based system quantifying the amount of phosphorylated peptide substrate resulting from kinase-catalyzed phosphoryl transfer to a peptide substrate. Compounds to be tested are dissolved in 100% DMSO and directly distributed to a white 384-well plate at 0.25 μl per well. […] This is followed by the addition of 5 μl/well of Pim 1, Pim 2 or Pim 3 kinase in assay buffer (concentrations described below). Final assay concentrations (described below) are in 2.5% DMSO. The reactions are performed for ˜2 hours, then stopped by the addition of 10 μl of 0.75 μg/ml anti-phospho Ser/Thr antibody (Cell Signaling), 10 μg/ml Protein A AlphaScreen beads (Perkin Elmer), and 10 μg/ml streptavidin coated AlphaScreen beads in stop/detection buffer (50 mM EDTA, 95 mM Tris, pH=7.5, 0.01% Tween-20). The stopped reactions are incubated overnight in the dark. The phosphorylated peptide is detected via an oxygen anion initiated chemiluminescence/fluorescence cascade using the Envision plate reader (Perkin Elmer).

[1] = tested on: KMS11 (human myeloma cell line); test: Cell Proliferation Assay (CellTiter-Glo, 3 days); format: cell-based; conditions: KMS-11, 72 h, KMS11-luc cells
Method in brief: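 EC50 from CellTiter-Glo luminescence after 3-day, 37° C compound treatment of KMS11 cells seeded at 2000 per well in IMDM plus 10% FBS.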

Pim 1 = Pim 1 (Homo sapiens, UniProt P11309); test: Pim 1 AlphaScreen assay (high ATP)
Pim 1, sequence (P11309 whole entry): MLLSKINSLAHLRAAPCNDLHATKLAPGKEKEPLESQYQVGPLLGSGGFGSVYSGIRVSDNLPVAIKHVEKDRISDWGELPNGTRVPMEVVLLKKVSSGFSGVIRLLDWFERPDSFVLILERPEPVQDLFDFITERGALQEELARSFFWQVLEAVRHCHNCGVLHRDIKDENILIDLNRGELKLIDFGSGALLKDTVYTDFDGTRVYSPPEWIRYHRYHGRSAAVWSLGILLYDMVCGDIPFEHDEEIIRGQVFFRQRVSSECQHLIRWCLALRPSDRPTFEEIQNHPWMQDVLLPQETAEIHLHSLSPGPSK

Pim 2, sequence (Q9P1W9 whole entry): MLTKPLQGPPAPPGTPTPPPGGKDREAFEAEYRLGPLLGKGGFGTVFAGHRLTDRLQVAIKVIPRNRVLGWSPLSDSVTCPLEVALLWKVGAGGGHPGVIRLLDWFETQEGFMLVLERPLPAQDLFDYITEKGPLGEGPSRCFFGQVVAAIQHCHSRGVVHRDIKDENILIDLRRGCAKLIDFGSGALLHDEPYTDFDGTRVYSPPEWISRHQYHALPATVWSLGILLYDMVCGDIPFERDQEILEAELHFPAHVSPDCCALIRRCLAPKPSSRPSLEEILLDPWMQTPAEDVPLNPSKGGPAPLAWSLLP

SMILES | IC50 (Pim 3) [nM] | IC50 (Pim 2) [nM] | EC50 [1] [nM] | IC50 (Pim 1) [nM]
C[C@H]1C[C@@H](c2ccncc2NC(=O)c2ccc(F)c(-c3c(F)cc(C4(F)COC4)cc3F)n2)C[C@@H](N)[C@@H]1O [Example 136, N-(4-((1R,3R,4R,5S)-3-amino-4-hydroxy-5-methylcyclohexyl)pyridin-3-yl)-6-(2,6-difluoro-4-(3-fluorooxetan-3-yl)phenyl)-5-fluoropicolinamide] | 4.8 | 5.59 | 225 | 0.08
COC1(c2cc(F)c(-c3nc(C(=O)Nc4cnccc4[C@@H]4C[C@H](C)C[C@H](N)C4)ccc3F)c(F)c2)COC1 [Example 53, N-(4-((1R,3S,5S)-3-amino-5-methylcyclohexyl)pyridin-3-yl)-6-(2,6-difluoro-4-(3-methoxyoxetan-3-yl)phenyl)-5-fluoropicolinamide] | 4.05 | 2.56 | 32 | 0.05
C[C@@H]1C[C@H](N)C[C@H](c2ccncc2NC(=O)c2ccc(F)c(-c3c(F)cc(OCC4(C#N)CCOCC4)cc3F)n2)C1 [Example 185, N-(4-((1R,3S,5S)-3-amino-5-methylcyclohexyl)pyridin-3-yl)-6-(4-((4-cyanotetrahydro-2H-pyran-4-yl)methoxy)-2,6-difluorophenyl)-5-fluoropicolinamide] | 2.44 | 4.04 | 632 | 0.02
N[C@H]1CCC[C@@H](c2ccncc2NC(=O)c2ccc(F)c(-c3c(F)cc(COC4CCOCC4)cc3F)n2)C1 [Example 154, N-(4-((1R,3S)-3-aminocyclohexyl)pyridin-3-yl)-6-(2,6-difluoro-4-((tetrahydro-2H-pyran-4-yloxy)methyl)phenyl)-5-fluoropicolinamide] | 5.22 | 32 | 492 | 0.1
C[C@@H]1C[C@H](N)C[C@H](c2ccncc2NC(=O)c2ccc(F)c(-c3c(F)cc(C(C)(C)C(=O)O)cc3F)n2)C1 [Example 181, 2-(4-(6-(4-((1R,3S,5S)-3-amino-5-methylcyclohexyl)pyridin-3-ylcarbamoyl)-3-fluoropyridin-2-yl)-3,5-difluorophenyl)-2-methylpropanoic acid] | 20.9 | 4.75 | > 10000 | 0.45
C[C@H]1CN(c2ccncc2NC(=O)c2ccc(F)c(-c3c(F)cc(S(C)(=O)=O)cc3F)n2)C[C@@H](N)[C@@H]1O [Example 16, N-(4-((3R,4R,5S)-3-amino-4-hydroxy-5-methylpiperidin-1-yl)pyridin-3-yl)-6-(2,6-difluoro-4-(methylsulfonyl)phenyl)-5-fluoropicolinamide] | 2.66 | 2.07 | 37 | 0.08
COCCOc1cc(F)c(-c2nc(C(=O)Nc3cnccc3[C@H]3C[C@@H](N)[C@H](O)[C@@H](C)C3)ccc2F)c(F)c1 [Example 24, N-(4-((1R,3R,4R,5S)-3-amino-4-hydroxy-5-methylcyclohexyl)pyridin-3-yl)-6-(2,6-difluoro-4-(2-methoxyethoxy)phenyl)-5-fluoropicolinamide] | 2.46 | 5.57 | 72 | 0.07
COCCc1cc(F)c(-c2nc(C(=O)Nc3cnccc3[C@H]3C[C@@H](N)[C@H](O)[C@@H](C)C3)ccc2F)c(F)c1 [Example 108, N-(4-((1R,3R,4R,5S)-3-amino-4-hydroxy-5-methylcyclohexyl)pyridin-3-yl)-6-(2,6-difluoro-4-(2-methoxyethyl)phenyl)-5-fluoropicolinamide] | 1.19 | 2.93 | 906 | 0.04
C=Cc1ccc(F)c(-c2nc(C(=O)Nc3cnccc3[C@H]3C[C@@H](N)[C@H](O)[C@@H](C)C3)ccc2F)c1F [Example 193, N-(4-((1R,3R,4R,5S)-3-amino-4-hydroxy-5-methylcyclohexyl)pyridin-3-yl)-6-(2,6-difluoro-3-vinylphenyl)-5-fluoropicolinamide] | 10.2 | 31.8 | 1850 | 0.47

Stronger by IC50 (Pim 3), values ahead:

IC50 (Pim 3) [nM] | IC50 (Pim 2) [nM] | EC50 [1] [nM] | IC50 (Pim 1) [nM] | SMILES
0.09 | 0.51 | 34 | 0.01 | C[C@H]1CN(c2ccncc2NC(=O)c2ccc(F)c(-c3c(F)cc(OCC4CC4)cc3F)n2)C[C@@H](N)[C@@H]1O [Example 92, N-(4-((3R,4R,5S)-3-amino-4-hydroxy-5-methylpiperidin-1-yl)pyridin-3-yl)-6-(4-(cyclopropylmethoxy)-2,6-difluorophenyl)-5-fluoropicolinamide]
0.35 | 1.14 | 21 | 0.02 | COc1cc(F)c(-c2nc(C(=O)Nc3cnccc3N3C[C@@H](N)[C@H](O)[C@@H](C)C3)ccc2F)c(F)c1 [Example 15, N-(4-((3R,4R,5S)-3-amino-4-hydroxy-5-methylpiperidin-1-yl)pyridin-3-yl)-6-(2,6-difluoro-4-methoxyphenyl)-5-fluoropicolinamide]
0.62 | 1.55 | 44 | 0.02 | CC(C)Oc1cc(F)c(-c2nc(C(=O)Nc3cnccc3[C@@H]3C[C@H](C)C[C@H](N)C3)ccc2F)c(F)c1 [Example 75, N-(4-((1R,3S,5S)-3-amino-5-methylcyclohexyl)pyridin-3-yl)-6-(2,6-difluoro-4-isopropoxyphenyl)-5-fluoropicolinamide]
0.42 | 1.36 | 24 | 0.02 | COC(C)(C)c1cc(F)c(-c2nc(C(=O)Nc3cnccc3N3C[C@@H](N)[C@H](O)[C@@H](C)C3)ccc2F)c(F)c1 [Example 130, N-(4-((3R,4R,5S)-3-amino-4-hydroxy-5-methylpiperidin-1-yl)pyridin-3-yl)-6-(2,6-difluoro-4-(2-methoxypropan-2-yl)phenyl)-5-fluoropicolinamide]
0.1 | 0.78 | 20 | 0.01 | CC(C)Oc1cc(F)c(-c2nc(C(=O)Nc3cnccc3N3C[C@@H](N)[C@H](O)[C@@H](C)C3)ccc2F)c(F)c1 [Example 93, N-(4-((3R,4R,5S)-3-amino-4-hydroxy-5-methylpiperidin-1-yl)pyridin-3-yl)-6-(2,6-difluoro-4-isopropoxyphenyl)-5-fluoropicolinamide]
0.19 | 0.56 | 82 | 0.01 | C[C@H]1CN(c2ccncc2NC(=O)c2ccc(F)c(-c3c(F)cc(OCC4CCOCC4)cc3F)n2)C[C@@H](N)[C@@H]1O [Example 200, N-(4-((3R,4R,5S)-3-amino-4-hydroxy-5-methylpiperidin-1-yl)pyridin-3-yl)-6-(2,6-difluoro-4-((tetrahydro-2H-pyran-4-yl)methoxy)phenyl)-5-fluoropicolinamide]
1.07 | 1.52 | 1380 | 0.02 | C[C@H]1C[C@@H](c2ccncc2NC(=O)c2ccc(F)c(-c3c(F)cc(C4CCS(=O)(=O)CC4)cc3F)n2)C[C@@H](N)[C@H]1O [Example 205, N-(4-((1R,3R,4S,5S)-3-amino-4-hydroxy-5-methylcyclohexyl)pyridin-3-yl)-6-(4-(1,1-dioxidotetrahydro-2H-thiopyran-4-yl)-2,6-difluorophenyl)-5-fluoropicolinamide]
